Measurements as given in patent US5686426A, “Dicarboxymethylated glycolipid derivatives as cell adhesion inhibitors” (Bristol-Myers Squibb Company, priority 1994, dated 1997).
pIC50: −log10 of the molar value.

Assays:
[1] = test system: HL-60 cells / activated platelets (P-selectin); experiment: HL-60 Platelet Cell Adhesion Assay; format: cell-based; settings: HL-60 cell adhesion to thrombin-activated human platelets
Method: HL-60 cells, obtained from American Type Culture Collection, were cultured in RPMI 1640 medium (GIBCO) supplemented with 20% fetal calf serum (Sigma) and 50 μg/ml gentamicin (GIBCO). Cells in log phase growth were harvested, washed and resuspended in Tyrodes buffer containing 5 mM HEPES and 0.2% bovine serum albumin and were fixed with 1% buffered formalin.
Blood from normal human donors was anticoagulated with citrate, layered over 1-Step Platelets (Accurate Chemical Co.), and centrifuged at 350 g for 20 minutes at room temperature. The platelet band was collected, diluted in 2 volumes of Tyrode's Buffer with 5 mM HEPES, 10 mM EDTA, and 0.2% BSA (pH 7.4) (THEB) and centrifuged at 600 g for 10 minutes. The platelet pellet was resuspended in THEB and incubated at room temperature for 1 hour. Calcein-acetoxy methylester (Calcein-Am, Molecular Probes) was added to the platelets at a final concentration of 10 μM and incubated for 10 minutes at 37° C. to label the platelets. Without washing, the platelets were counted on a Coulter counter model ZM, and the concentration was adjusted to 1×10^7 /ml. The platelets were activated with 2 U/ml of human thrombin for 10 minutes in Tyrode's containing 2 mM CaCl2, 5 mM HEPES, and 0.2% BSA (pH 7.4) (THB) at 37° and immediately fixed with 1% buffered formalin for 1 to 2 hours at room temperature. A small aliquot of labeled platelets was removed before activation and designated as non-activated.
Both platelets and HL-60 were washed in a ≥5 fold excess volume of Hanks Balanced Salt Solution (HBSS), resuspended in THB and counted. Cell concentrations were adjusted to 2×10^7 /ml for platelets and 4×10^6 /ml for HL-60, this ratio determined to be optimum for platelet: HL-60 cell adhesion. Compounds were incubated with 50 μl of platelets for 30 minutes at room temperature before addition of 50 μl of HL-60. This ratio of 5:1 platelets to HL-60 was incubated for 30 minutes at room temperature before addition of 0.2 ml of THB to increase the volume so the samples could be analyzed on a FACScan cytometer (Becton Dickinson). Non-activated platelets, and activated platelets with 10 mM EDTA were included as controls. Data were collected within a region set for the forward scatter channel corresponding to HL-60 size events.
The percent HL-60 cells which contained bound platelets was determined for each test condition. The inhibition of binding was determined by comparison to standards which were treated with vehicle alone (representing 0% inhibition) and standards whose specific binding had been blocked by the use of EDTA (representing 100% inhibition), by the following formula: [formula] where x=HL-60 cells containing bound platelets in the presence of the compound;
b=HL-60 cells containing bound platelets in the presence of EDTA;
a=HL-60 cells containing bound platelets in presence of compound vehicle;
z=% inhibition of platelet: HL-60 cell adhesion

[2] = test system: reverse passive Arthus reaction in rats; experiment: Reverse Passive Arthus Reaction in Rats (RPA); format: in vivo, Male Sprague Dawley rats; set-up: key: NS: no significant inhibition at 3 mg; settings: rat, single IV dose 3 mg, 4 hours; for RPA VP % Inhib. (vascular permeability): 125I-BSA plasma extravasation into skin; for RPA MPO % Inhib. (myeloperoxidase, neutrophil accumulation): skin MPO activity
From the text: The reverse passive Arthus reaction in rats is a modification of the method by Mulligan et al., as described in J. Clin. Invest., (1991) 88: 1396-1406. This is an experimental model in which the interaction of antigen-antibody complexes and complement leads to a severe vasculitis that is associated with edema, induration, erythema and hemorrhage. The interaction between the antigen-antibody complexes and complement leads to a localized influx of neutrophils. These neutrophils release a variety of mediators that are associated with tissue damage and vascular permeability. The localized inflammatory reaction is measured using different techniques i.e., vascular permeability and neutrophil influx which is evaluated both biochemically and microscopically.
Male Sprague Dawley specific pathogen-free rats with jugular vein cannulae (280-320 g, Hill Top Labs, Pa.) are used in these studies. Animals are acclimated for at least 1 day and individually housed in stainless steel cages. The dorsal region of the rats is closely clipped 2 days prior to the experiments and divided into 4 sites on each side of the midline. Prior to all injections the rats are sedated with 0.4 ml per 300 gm rat of ketamine/rompun [1000 mg (10 ml) of ketamine HCL is mixed with 40 mg (2.0 ml) Rompun] administered IP and or inhalation anesthesia with metafane (methoxyflurane).
Bovin Serum Albumin (BSA) and rabbit polyclonal IgG rich in anti-BSA are purchased from Sigma Chemical Co. (St. Louis, Mo.). Radiolabelled ^125 I-BSA (spAct 1-5 μCi/μg) is purchased from Dupont NEN (Boston, Mass.).
Each rat is administered intradermal (ID) injection of (0.4 mg, 0.6 mg and 0.8 mg) anti-BSA in a volume of 100 μl per injection in normal saline. The ID injections are randomized near the mid dorsal region on both sides of the back bone. Immediately after the ID injections of the anti-BSA, the rats are administered intravenous (IV) injections of BSA (10 mg in 1.0 ml) in normal saline containing ^125 I labeled BSA (1 μCi/ml BSA or 5.0 μCi/kg body wt) for quantification of dermal vascular injury. Anti-inflammatory agents such as inhibitors of adhesion molecules of the present invention are administered IV at a single dose of 3 mg immediately after BSA. Four (4) hours after the IV injection of BSA, the rats are anesthetized with metafane and 2 to 3 ml of blood is withdrawn via the cannula into an anticoagulant containing (EDTA or Heparin) tube and plasma separated and saved for neutrophil and albumin quantitation. The rats are killed and the skin surrounding the injection site (15 mm diameter) is punched out and weighed. The skin samples and a fixed volume of plasma (0.1 to 1.0 ml) is analyzed in a gamma-counter for ^125 I content. Skin samples from the contralateral side are processed and analyzed for myeloperoxidase activity (MPO) as a measure of neutrophil accumulation. As needed, samples are also processed for histological evaluation of the reacted sites.
Vascular Permeability (VP)
The calculation of the plasma protein exudation into skin is made by determining the radioactivity in the tissue and relating this to the level of radioactive albumin in the blood at the time of sacrifice. […] [formula]
Percent inhibition of the test compound at 3 mg was determined as follows: [formula] Myeloperoxidase (MPO)
MPO is located in the azurophil granules of polymorphonuclear leukocytes (PMN). Because of its abundance in these cells (5% dry weight), this enzyme is used as a marker for tissue neutrophil content. For tissue MPO content, the method of Bradley, et al., was used as described in J. Invest. Dermatol. (1982) 78: 206-209. Biopsies from each treatment group were placed in plastic tubes (15×100 mm) containing 10 ml of 0.5% hexadecyltrimethylammonium bromide (HTAB)in 0.05M potassium phosphate buffer pH 6.0. The tissue was then homogenized with a Brinkmann Polytron homogenizer (10s). […]

SMILES	pIC50 [1]	RPA VP % Inhib. (vascular permeability) [2]	RPA MPO % Inhib. (myeloperoxidase, neutrophil accumulation) [2]
CCCCCC/C=C/[C@@H](OC(=O)c1ccccc1)[C@H](CO[C@H]1O[C@H](COCC(=O)O)[C@H](OCC(=O)O)[C@H](OC(=O)c2ccccc2)[C@H]1OC(=O)c1ccccc1)NC(=O)CCCCCCCCC(=O)OC [Example 8, (2S,3R,4E)-3-Benzoyloxy-2-(9-methoxycarbonyl-nonanoylamino)-1-(2,3-di-O-benzoyl-4,6-di-O-carboxymethyl-α-D-galactopyranosyloxy)-4-undecene]	< 4.00	9%	22%
CCCCCCCCCCCCC/C=C/[C@@H](OC(=O)c1ccccc1)[C@H](CO[C@H]1O[C@H](COCC(=O)O)[C@H](OCC(=O)O)[C@H](O)[C@H]1OC(=O)c1ccccc1)NC(=O)CCCCCCCCCCCCCCC [Example 14, (2S,3R,4E)-3-Benzoyloxy-2-hexadecanoylamino-1-[2-O-benzoyl-4,6-di-O-carboxymethyl-α-D-galactopyranosyloxy]-4-octadecene]	4.70	32%	13%

Second part, led by results:

pIC50 [1]	SMILES	RPA VP % Inhib. (vascular permeability) [2]	RPA MPO % Inhib. (myeloperoxidase, neutrophil accumulation) [2]
4.49	CCCCCCCCCCCCC/C=C/[C@@H](OC(=O)c1ccccc1)[C@H](CO[C@H]1O[C@H](COCC(=O)O)[C@H](OCC(=O)O)[C@H](OC(=O)c2ccccc2)[C@H]1OC(=O)c1ccccc1)NC(=O)CCCCCCCCCCCCCCC [Example 2, (2S,3R,4E)-3-Benzoyloxy-2-hexadecanoylamino-1-[2,3-di-O-benzoyl-4,6-di-O-carboxymethyl-α-D-galactopyranosyloxy]-4-octadecene]	> 73%	> 99%
5.00	CCCCCCCCCCCCC/C=C/[C@@H](OC(=O)c1ccccc1)[C@H](CO[C@@H]1O[C@H](COCC(=O)O)[C@H](OCC(=O)O)[C@H](OC(=O)c2ccccc2)[C@H]1OC(=O)c1ccccc1)NC(=O)CCCCCCCCCCCCCCC [Example 16, (2S,3R,4E)-2-Hexadecanoylamino-3-benzoyloxy-1-(4,6-di-O-carboxymethyl-2,3-di-O-benzoyl-β-D-galactopyranoside)-4-octadecene]	NS	NS
5.15	CCCCCCCCCCCCC/C=C/[C@@H](OC(=O)c1ccccc1)[C@H](CO[C@@H]1O[C@H](COCC(=O)O)[C@H](OCC(=O)O)[C@H](OC(=O)c2ccccc2)[C@H]1O)NC(=O)CCCCCCCCCCCCCCC [Example 18, (2S,3R,4E)-3-Benzoyloxy-2-hexadecanoylamino-1-[3-O-benzoyl-4,6-di-O-carboxymethyl-β-D-galactopyranosyloxy]-4-octadecene]	73.6%	98%
